Data on six molecules can be found in US20230287021A1, “COMPOUNDS, COMPOSITIONS AND METHODS FOR STABILIZING TRANSTHYRETIN AND INHIBITING TRANSTHYRETIN MISFOLDING” (Protego Biopharma, Inc., priority 2020, published 2023).

Data set [1] in a line: In vitro rat plasma stability assay, formation of tafamidis. The class given is in vitro ADME. The settings on record: 37° C., 2 µM test compound. The gist of the method: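 Compound at 2 µM incubated in rat plasma at 37 °C, sampled at 0, 10, 30, 60, 120 min or 0, 60, 120, 180, 240 min. Protein precipitated, supernatant analyzed by LC-MS/MS, and percentage formation of tafamidis calculated per time point.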

A short description of data set [2]: In vitro rat liver S9 stability assay, formation of tafamidis. The class given is in vitro ADME. The note with it: rat liver S9, 37° C., 1 µM test compound. The method, then: The test compound was added to liver S9 and incubated at 37° C. in a water bath at a concentration of 1 µM. At each time point (0, 5, 10, 20, 30 and 60 min), stop solution (tolbutamide plus labetalol) was added to precipitate protein and mixed thoroughly. After centrifugation, an aliquot of supernatant was analyzed by LC-MS/MS. The percentage of formation of active agent was calculated at each time point.

Data set [3] is described as follows: In vivo rat PK: tafamidis in plasma, CSF and brain. On the set-up: species or system Male Sprague-Dawley (SD) rats. The note with it: for Tafamidis CSF/Plasma Ratio over 24 hrs (po): po administration of test compound. An excerpt: For a compound provided herein to be an effective TTR stabilizer drug to halt and/or prevent the ocular and cerebral TTR amyloid deposition TTR amyloidosis, it has to be able to penetrate into the brain and CSF (surrogate for eye penetration) and deliver a sufficient amount of TTR stabilizer to stop TTR dissociation. A pharmacokinetic study in rat was used to evaluate the compounds. Male Sprague-Dawley (SD) rats (200-220 g weight) were acclimated for at least 2 to 3 days before being placed on study. All animals had access to certified rodent diet and water at libitum. Appropriate amount of the test compound was accurately weighed and mixed with appropriate volume of vehicle (such as DMSO/sterile water for iv dosing or 0.5% methylcellulose homogenous suspension or solution for oral administration or as a solution in a mixture NMP/PEG400/solutol/water) to administer a dose of 2, 5 or 10 mg/kg. For IV dosing the test compound was administered via tail vein or indwelling cannula. For oral dosing, the test compound was administered by oral gavage. Blood and CSF samples were collected at selected timepoints. Blood collection was performed from saphenous vein or tail vein of each animal into polypropylene tubes at each timepoint. All blood samples were transferred into EDTA-K2 tubes and centrifuged for 15 minutes at 4° C. for plasma collection. Plasma samples were kept at -80° C. until LC/MSMS analysis. CSF was collected from cisterna magna at each timepoint and quick frozen over dry ice and kept at -80° C. until LC/MSMS analysis. Brains were harvested immediately after the terminal bleeding (~ 24 hrs post dosing). The blood of the brain was perfused with normal saline. The brain was quickly picked and placed into centrifuge tube. The weight of brain samples was recorded. 4-Fold homogenization solution (MeOH/15 mM PBS (1:2)) was added into the tube according to the weighed samples. The brain was homogenized using a Polytron (3 strokes or more until homogenous, each 30 seconds) on wet ice. The samples were quick frozen over dry ice and kept at -80° C. until LC/MSMS analysis. Using a LC-MSMS method for the quantitative determination of test compound in biological matrixes, amount of test compound and active agent were measured in plasma and CSF at selected timepoints post-dosing and in brain at 24 hrs post dosing. Plasma concentration versus time data was analyzed by non-compartmental approaches using the Phoenix WinNonlin 6.3 software program. As reference, an oral dose of 2 mg/kg of tafamidis gave a CSF to plasma ratio over 24 hrs around 0.01 and a brain to plasma ratio at 24 hrs around 0.02.

The conditions of data set [4]: tafamidis-treated FAP patients, cited from earlier work.

As to `CC(OC(=O)c1ccc2nc(-c3cc(Cl)cc(Cl)c3)oc2c1)c1ccn(C)n1` (stereo not drawn) [Compound 160], the “Formation of tafamidis at 120 min” value in data set [1] is recorded as “C (C is ≥50 to <75%)”. In addition, the “Formation of tafamidis at 60 min” value in data set [2] was “C (C is ≥50 to <75%)”. Moreover, the “Tafamidis CSF/Plasma Ratio over 24 hrs (po)” value (shortened to “Tafamidis CSF/Plasma Ratio”) in data set [3] is listed as “A (A is < 0.015)”.
On to `CC(OC(=O)c1ccc2nc(-c3cc(Cl)cc(Cl)c3)oc2c1)C1CCOC1` (stereo not drawn) [Compound 161], for which the “Formation of tafamidis at 120 min” value in data set [1] is given as “B (B is ≥25 to <50%)”. The “Formation of tafamidis at 60 min” value in data set [2] was “B (B is ≥25 to <50%)”. In addition, in data set [3], the “Tafamidis CSF/Plasma Ratio” value is “A (A is < 0.015)”.
As to `CCN1CCCC(OC(=O)c2ccc3nc(-c4cc(Cl)cc(Cl)c4)oc3c2)C1` (stereo not drawn) [Compound 163], the “Formation of tafamidis at 120 min” value in data set [1] is listed as “C (C is ≥50 to <75%)”. The “Formation of tafamidis at 60 min” value in data set [2] is “B (B is ≥25 to <50%)”. Moreover, the “Tafamidis CSF/Plasma Ratio” value in data set [3] is “A (A is < 0.015)”.
On the same counts, the results for `O=C(OC1CCCN(CC(F)F)C1)c1ccc2nc(-c3cc(Cl)cc(Cl)c3)oc2c1` (stereo not drawn) [Compound 167, 1-(2,2-difluoroethyl)piperidin-3-yl 2-(3,5-dichlorophenyl)benzo[d]oxazole-6-carboxylate] are “C (C is ≥50 to <75%)”, “C (C is ≥50 to <75%)” and “A (A is < 0.015)”.
On the same counts, the results for `CC(Cn1ccnc1)OC(=O)c1ccc2nc(-c3cc(Cl)cc(Cl)c3)oc2c1` (stereo not drawn) [Compound 170] are “B (B is ≥25 to <50%)”, “B (B is ≥25 to <50%)” and “A (A is < 0.015)”.
`O=C(O)c1ccc2nc(-c3cc(Cl)cc(Cl)c3)oc2c1` [tafamidis]: the Kp in data set [3] (male, Sprague-Dawley, CSF and plasma, oral dose of 2 mg/kg of tafamidis, reference, read-out: CSF to plasma ratio over 24 hrs) is about 0.01. The Kp at 24 h in data set [3] (male, Sprague-Dawley, brain and plasma, oral dose of 2 mg/kg of tafamidis, reference, read-out: brain to plasma ratio at 24 hrs) is about 0.02. For the same molecule, the “tafamidis level in CSF relative to that in plasma” value in data set [4] (CSF) was 2%. Besides, the “tafamidis/TTR stoichiometric ratio in plasma” value in data set [4] (plasma) is 2.4. In data set [4] (vitreous and CSF), the “tafamidis/TTR stoichiometric ratio in vitreous and CSF” value is on record as at most 1. The “tafamidis level in vitreous relative to that in plasma” value in data set [4] (vitreous) was 0.5%.
